From US11845740B2, “Glutaminyl cyclase inhibitors and the use thereof in treatment of various diseases” (OBSCHESTVO S OGRANICHENNOI OTVETSTVENNOSTIYU …, priority 2017, dated 2023)

Target: recombinant intracellular human glutaminyl cyclase (Homo sapiens (Human), UniProt Q9NXS2)
Experiment: Enzymatic activity of human glutaminyl cyclase in vitro (fluorescent substrate Gln-bNA)
Type: biochemical
Details: 25° C., 50 μM Gln-bNA, pH 8.0
Procedure: The reaction mixture having a volume of 100-μl has contained 50 μM of fluorogenic substrate; ˜0.2 units of human pyroglutaminyl aminopeptidase (1 unit is defined as an amount hydrolyzing 1 micromole of pGlu-bNA per minute), and an aliquot of the recombinant intracellular human glutaminyl cyclase (gQC) in 50 mM trisaminomethane-HCl and 5% glycerol, a pH is 8.0.
The further course of the reaction was monitored spectrophotometrically (the wavelength of the excitation and emission were 320 and 410 nm). The enzyme activity was determined by an amount of the released 2-naphthyl amide (bNA), calculated from the calibration curve. The IC50 values were calculated using nonlinear regression of “inhibitor concentration”-“enzymatic activity” curve.

Sequence of recombinant intracellular human glutaminyl cyclase (Q9NXS2 whole entry): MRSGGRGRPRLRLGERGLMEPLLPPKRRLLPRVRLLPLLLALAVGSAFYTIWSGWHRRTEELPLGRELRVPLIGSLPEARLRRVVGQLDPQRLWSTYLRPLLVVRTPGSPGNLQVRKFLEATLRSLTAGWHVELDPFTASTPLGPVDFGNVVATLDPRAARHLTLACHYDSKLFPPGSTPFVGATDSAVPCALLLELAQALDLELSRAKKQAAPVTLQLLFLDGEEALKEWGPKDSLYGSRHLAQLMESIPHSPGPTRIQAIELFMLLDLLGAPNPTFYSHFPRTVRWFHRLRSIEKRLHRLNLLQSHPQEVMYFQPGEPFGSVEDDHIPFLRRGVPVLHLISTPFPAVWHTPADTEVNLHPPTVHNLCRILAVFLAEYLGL

Question: What does the source list for `O=C(NCCc1cnc[nH]1)NCCc1cnc[nH]1` [Compound III, N,N′-bis[2-(1H-imidazol-4-yl)ethyl]carbamide]?
Answer: IC50: 3500 nM; Ki: 2000 nM
